Test results reported in US5696117A, “Benzoxazine antimicrobial agents” (Ortho Pharmaceutical Corporation, priority 1995, dated 1997).
Structures can show the parent of a compound that is named as a salt.

Molecular target: T1, Kinase A and SpoOF (Bacillus subtilis, UniProt P16497)
T1 construct: made in house; host or cells: recombinant E. coli (overexpression)
T1 sequence (P16497 1-606): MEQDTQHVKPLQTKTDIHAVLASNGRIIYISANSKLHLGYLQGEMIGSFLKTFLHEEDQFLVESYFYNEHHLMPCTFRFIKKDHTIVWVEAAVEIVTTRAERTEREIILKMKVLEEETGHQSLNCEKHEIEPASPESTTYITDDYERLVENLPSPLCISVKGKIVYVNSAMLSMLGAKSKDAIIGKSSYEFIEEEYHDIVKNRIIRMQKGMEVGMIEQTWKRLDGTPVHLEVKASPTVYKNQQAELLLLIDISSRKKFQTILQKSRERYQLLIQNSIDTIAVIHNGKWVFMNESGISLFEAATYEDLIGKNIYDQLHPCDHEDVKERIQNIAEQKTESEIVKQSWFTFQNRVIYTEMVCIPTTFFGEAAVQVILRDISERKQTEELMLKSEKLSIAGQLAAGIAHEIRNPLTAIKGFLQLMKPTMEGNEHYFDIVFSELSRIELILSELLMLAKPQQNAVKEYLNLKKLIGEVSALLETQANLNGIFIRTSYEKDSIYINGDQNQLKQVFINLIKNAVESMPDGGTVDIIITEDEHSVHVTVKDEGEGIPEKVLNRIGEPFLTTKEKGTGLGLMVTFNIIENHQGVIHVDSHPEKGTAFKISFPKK
Test: Autophosphorylation of Kinase A and Transphosphorylation of SpoOF Assay (HPK in vitro assay)
Format: biochemical
Conditions: inhibition of KinA autophosphorylation / SpoOF transphosphorylation, inhibitor concentrations from 1 to 500 μM
Experimental: 1. Autophosphorylation of Kinase A and Transphosphorylation of SpoOF Assay
To study the effect of the compounds of the present invention on the signal transduction process in bacteria, the inhibiting effect of the compounds on the sporulation operon proteins Kinase A and SpoOF was examined. Specifically, the inhibition of autophosphorylation of Kinase A and the transphosphorylation of SpoOF was determined in the following assays. The SpoOF response regulator is the primary substrate for phosphorylation by the protein kinase, Kin A, involved in the sporulation process in bacteria. See D. Burbulys, K. A. Trach, J. A. Hoch, Cell, 64, 545-552 (1991). SpoOF and KinA were prepared from recombinant E. coli overexpressing the proteins (J. Cavanagh et al, Amino Acids, 6, 131-140 (1994) and references therein).
The following stock reagents were either prepared and used promptly or stored at the indicated temperature:
8× Salts: 2M KCl (5 mL), 1M MgCl2 (800 mL), 1M CaCl2 (100 mL), 10 mg/mL phenylmethylsulfonyl fluoride (200 mL), 1M dithioreitol (50 mL), 0.25M Na2 EDTA (32 mL) and H2 O 3.82 mL (-20° C.)
5× Loading Dye: 0.5M TRIS-HCl-pH 6.8 (7.5 mL), 10% SDS (2 mL) 0.1% bromophenol blue (0.5 mL), 100% glycerol (3 mL) and 12.5M 2-mercaptoethanol (0.3 mL)
1-1.3 mg/mL KinA:15 mM TRIS-HCl, pH 8.0, 6 mM KCl; 4 mM 2-mercaptoethanol; 40% glycerol (-20° C.)
1 mg/mL SpoOF: 17.5 mM TRIS-HCl, pH 8.0; 0.7 mM KCl; 0.7 mM MgCl2; 0.7 mM CaCl2; 5mM 2-mercaptoethanol; 30% Glycerol (-20° C.)
5% Stacking Gel: 40% 29:1 acrylamide:bis acrylamide (1.25 mL), 0.5M TRIS-HCl, pH 6.8 (2.5 mL), 10% SDS (0.1 mL), D-H2 O (6.15 mL) 10% ammonium persulfate (100 mL) and TEMED (25 mL)
SDS Running Buffer: TRIS-BASE (3.02 g), glycine (14.4 g) SDS (1 g), D-H2 O (to 1 L)
The reaction mixture was prepared from 8× Salts (87 μL), 1M TRIS, pH 8 (118 μL), 50% glycerol (63 μL), SpoOF (14.1 μL) and KinA (7.0 μL). Microcentrifuge tubes were charged with the reaction mixture (18.5 μL) and a 1.0 mM solution of the test compound in 5% DMSO (18.5 μL), and incubated for 15 min on ice. 100 mM ATP solution (3.0 μl, containing 625 μCi [^32 P]ATP) was added, and the mixture left for 10 minutes at room temperature. The reaction was quenched with 5× loading dye (10 μL per tube) and the samples were loaded on a prepared 5% Stacking Gel, or stored on dry ice until ready for use. The prepared wells were filled with SDS Running Buffer, samples were loaded into the wells, and 80 volts were applied to the gel until the dye front reached the bottom of the stacking gel. The voltage was then increased to 250 volts until electrophoresis was complete. Radioactive bands in the gel corresponding to phosphorylated KinA and SpoOF were imaged and quantitated with a phosphoimager.
If either enzyme was inhibited (as evidenced by the absence of labelled protein in the developed gel), an IC50 was calculated by running the assay with a range of inhibitor concentrations from 1 to 500 μM. After electrophoresis of the reaction mixtures, percent inhibition was determined by measuring the concentration of radioactive phosphorus with a phosphoimager and calculating the values using a software program (BioRad Molecular Analyst). IC50 values of less than 500 μM are considered active.

IC50 [µM]	Compound
122	NCc1cccc(OCCC2Oc3ccccc3N(Cc3ccc(Cl)cc3)C2=O)c1 (stereo not drawn) [Compound 10, 2-[2-[3-(Aminomethyl)phenoxy]ethyl]-4-(4-chlorobenzyl)-3,4-dihydro-3-oxo-2H-1,4-benzoxazine]
140	NCc1cccc(OCCC2Oc3ccccc3N(Cc3ccccc3Cl)C2=O)c1 (stereo not drawn) [Compound 12, 2-[2-[3-(Aminomethyl)phenoxy]ethyl]-4-(2-chlorobenzyl)-3,4-dihydro-3-oxo-2H-1,4-benzoxazine]
172	NCc1ccc(OCCC2Oc3ccccc3N(Cc3ccccc3Cl)C2=O)cc1 (stereo not drawn) [Compound 14, 2-[2-[4-(Aminomethyl)phenoxy]ethyl]-4-(2-chlorobenzyl)-3,4-dihydro-3-oxo-2H-1,4-benzoxazine]
264	NCCc1ccc(OCCC2Oc3ccccc3N(Cc3ccccc3Cl)C2=O)cc1 (stereo not drawn) [Compound 18, 2-[2-[4-(2-Aminoethyl)phenoxy]ethyl]-4-(2-chlorobenzyl)-3,4-dihydro-3-oxo-2H-1,4-benzoxazine]
16	N=C(N)NCCc1ccc(OCCC2Oc3ccccc3N(Cc3ccccc3Cl)C2=O)cc1 (stereo not drawn) [Compound 20, 4-(2-Chlorobenzyl)-2-[2-[4-(2-guanidinoethyl)phenoxy]ethyl]-3,4-dihydro-3-oxo-2H-1,4-benzoxazine]
26	N=C(N)NCc1ccc(OCCC2Oc3ccccc3N(Cc3ccc(Cl)cc3)C2=O)cc1 (stereo not drawn) [Compound 21, 4-(4-Chlorobenzyl)-2-[2-[4-(guanidinomethyl)phenoxy]ethyl]-3,4-dihydro-3-oxo-2H-1,4-benzoxazine]
56	Cc1ccc2c(c1)N(Cc1cccc(Cl)c1)C(=O)C(CCOc1ccc(CCNC(=N)N)cc1)O2 (stereo not drawn) [Compound 24, 4-(3-Chlorobenzyl)-3,4-dihydro-2-[2-[4-(2-guanidinoethyl)phenoxy]ethyl]-6-methyl-3-oxo-2H-1,4-benzoxazine]
41	N=C(N)NCCc1ccc(OCCC2Oc3cccnc3N(Cc3cccc(Cl)c3)C2=O)cc1 (stereo not drawn) [Compound 25, 4-(3-Chlorobenzyl)-3,4-dihydro-2-[2-[4-(2-guanidinoethyl)phenoxy]ethyl]-3-oxo-2H-pyrido[3,2-b]-1,4-oxazine]
340	CC(C)(C)OC(=O)N=C(NCCc1ccc(OCCC2Oc3ccccc3N(Cc3ccccc3)C2=O)cc1)NC(=O)OC(C)(C)C (stereo not drawn) [Compound 27]
44	N=C(N)NCCc1ccc(OCCC2Oc3ccccc3N(Cc3ccccc3)C2=O)cc1 (stereo not drawn) [Compound 28, 4-Benzyl-3,4-dihydro-2-{2-[4-[2-guanidinoethyl]phenoxy]ethyl}-3-oxo-2H-1,4-benzoxazine Hydrochloride 0.7 Hydrate]
54	COc1ccccc1CN1C(=O)C(CCOc2ccc(CCNC(=N)N)cc2)Oc2ccccc21 (stereo not drawn) [Compound 29, 3,4-Dihydro-2-{2-[4-(2-guanidinoethyl)phenoxy]ethyl}-4-(2-methoxybenzyl)-3-oxo-2H-1,4-benzoxazine]
46	N=C(N)NCCc1ccc(OCCC2Oc3ccccc3N(Cc3cccc(F)c3)C2=O)cc1 (stereo not drawn) [Compound 31, 3,4-Dihydro-4-(3-fluorobenzyl)-2-{2-[4-(2-guanidinoethyl)phenoxy]ethyl}-3-oxo-2 H-1,4-benzoxazine]
145	COc1cccc(CN2C(=O)C(CCOc3ccc(CCNC(=N)N)cc3)Oc3ccccc32)c1 (stereo not drawn) [Compound 33, 3,4-Dihydro-2-{2-[4-(2-guanidinoethyl)phenoxy]ethyl}-4-(3-methoxybenzyl)-3-oxo-2H-1,4-benzoxazine]
24	N=C(N)NCCc1ccc(OCCC2Oc3ccccc3N(Cc3cccc(OCc4ccccc4)c3)C2=O)cc1 (stereo not drawn) [Compound 35, 4-(3-Benzyloxybenzyl)-3,4-dihydro-2-{2-[4-(2-guanidinoethyl)phenoxy]ethyl}-3-oxo-2H-1,4-benzoxazine]
72	N=C(N)NCCc1ccc(OCCC2Oc3ccccc3N(Cc3cccc(O)c3)C2=O)cc1 (stereo not drawn) [Compound 36, 3,4-Dihydro-2-{2-[4-(2-guanidinoethyl)phenoxy]ethyl}-4-(3-hydroxybenzyl)-3-oxo-2H-1,4-benzoxazine]
51	COc1ccc(CN2C(=O)C(CCOc3ccc(CCNC(=N)N)cc3)Oc3ccccc32)cc1 (stereo not drawn) [Compound 37, 3,4-Dihydro-2-{2-[4-(2-guanidinoethyl)phenoxy]ethyl}-4-(4-methoxybenzyl)-3-oxo-2H-1,4-benzoxazine]
34	N=C(N)NCCc1ccc(OCCC2Oc3ccccc3N(Cc3ccc(-c4ccccc4)cc3)C2=O)cc1 (stereo not drawn) [Compound 38, 3,4-Dihydro-2-{2-[4-(2-guanidinoethyl)phenoxy]ethyl}-3-oxo-4-(4-phenylbenzyl)-2H-1,4-benzoxazine]

Compound	IC50 [µM]
3,4-Dihydro-4-(2,4-dichlorobenzyl)-2-{2-[4-(2-guanidinoethyl)phenoxy]ethyl}-3-oxo-2H-1,4-benzoxazine [Compound 141]	37
CC(C)(C)OC(=O)NCc1ccc(OCCC2Oc3ccccc3N(Cc3cccc(Cl)c3)C2=O)cc1 (stereo not drawn) [Compound 1, 2-[2-[4-(t-Butoxycarbonylaminomethyl)phenoxy]ethyl]-4-(3-chlorobenzyl)-3,4-dihydro-3-oxo-2H-1,4-benzoxazine]	253
CC(C)(C)OC(=O)NCc1ccc(OCCC2Oc3ccccc3N(Cc3ccc(Cl)cc3)C2=O)cc1 (stereo not drawn) [Compound 3, 2-[2-[4-(t-Butoxycarbonylaminomethyl)phenoxy]ethyl]-4-(4-chlorobenzyl)-3,4-dihydro-3-oxo-2H-1,4-benzoxazine]	283
CC(C)(C)OC(=O)NCCc1cccc(OCCC2Oc3ccccc3N(Cc3ccc(Cl)cc3)C2=O)c1 (stereo not drawn) [Compound 7, 2-{2-[3-(2-t-Butoxycarbonylaminoethyl)phenoxy]ethyl}-4-(4-chlorobenzyl)-3,4-dihydro-3-oxo-2H-1,4-benzoxazine]	308
CC(C)(C)OC(=O)NCc1ccc(OCCC2Oc3ccccc3N(Cc3ccccc3Cl)C2=O)cc1 (stereo not drawn) [Compound 13, 2-[2-[4-(t-Butoxycarbonylaminomethyl)phenoxy]ethyl]-4-(2-chlorobenzyl)-3,4-dihydro-3-oxo-2H-1,4-benzoxazine]	272
CC(C)(C)OC(=O)NCCc1cccc(OCCC2Oc3ccccc3N(Cc3ccccc3Cl)C2=O)c1 (stereo not drawn) [Compound 15, 2-[2-[3-(2-(t-Butoxycarbonylamino)ethyl)phenoxy]ethyl]-4-(2-chlorobenzyl)-3,4-dihydro-3-oxo-2H-1,4-benzoxazine]	165
CC(C)(C)OC(=O)NCCc1ccc(OCCC2Oc3ccccc3N(Cc3ccccc3Cl)C2=O)cc1 (stereo not drawn) [Compound 17, 2-[2-[4-(2-(t-Butoxycarbonylamino)ethyl)phenoxy]ethyl]-4-(2-chlorobenzyl)-3,4-dihydro-3-oxo-2H-1,4-benzoxazine]	352
